Source: patent publication EP4615450B1 (priority 2023, dated 2024)

Test system: SARS-CoV2
Test: PCR test (Ct value) in patients, three successive lozenges (Beispiel 2)
Assay type: in vivo, Patienten
Details: result in words; over time with successive administration of several lozenges, also versus placebo
Text: Darüber hinaus wird die antivirale Wirksamkeit einer erfindungsgemäß einsetzbaren Zusammensetzung in Form der in Beispiel 1 beschriebenen Octenidindihydrochlorid-Lutschtablette an weiteren Patienten untersucht. Die Patienten weisen im Hinblick auf SARS-CoV2 vor Verabreichung der Lutschtabletten einen positiven PCR-Test auf (in der nachfolgenden Tabelle 3 unter "Ct0" angegeben).
Die Patienten erhalten insgesamt jeweils drei Octenidindihydrochlorid-Lutschtabletten in definierter zeitlicher Abfolge. Die Lutschzeit beträgt für eine jeweilige Tablette 15 Minuten, wobei jeweils nach jeweils weiteren 15 Minuten ein PCR-Test durchgeführt wird. Der PCR-Test nach Verabreichung der ersten Octenidindihydrochlorid-Lutschtablette wird somit 30 Minuten nach erfolgter Verabreichung durchgeführt (in der nachfolgenden Tabelle 3 unter "Ct1" angeführt).
Die zweite Octenidindihydrochlorid-Lutschtablette wird 2,5 Stunden nach Verabreichung der ersten Lutschtablette verabreicht, wobei der diesbezügliche PCR-Test 3 Stunden nach Verabreichung der ersten Lutschtablette und 30 Minuten nach Verabreichung der zweiten Lutsch-tablette durchgeführt wird (in der nachfolgenden Tabelle 3 unter "Ct2" angeführt). […]

## CCCCCCCCNc1cc[n+](CCCCCCCCCC[n+]2ccc(NCCCCCCCC)cc2)cc1.[Cl-].[Cl-] [Octenidindihydrochlorid, 1,1'-(1,10-Decandiyl)bis[4-(octylamino)pyridinium]-dichlorid]
  Ct-Wert: deutliche und nachhaltige Zuname des jeweiligen Ct-Werts
